# Laboratory results reported in US11477981B2, “Ice nucleation formulations for cryopreservation and stabilization of biologics” (The General Hospital Corporation, priority 2016, dated 2022).
# B1: ice nucleation active (INA) protein: ice nucleation active protein InaZ of Pseudomonas syringae (UniProt P06620-1; SEQ ID NO: 1) (protein, listed as Pseudomonas syringae)
# chain: MNLDKALVLRTCANNMADHCGLIWPASGTVESRYWQSTRRHENGLVGLLWGAGTSAFLSVHADARWIVCEVAVADIISLEEPGMVKFPRAEVVHVGDRISASHFISARQADPASTSTSTLTPMPTAIPTPMPAVASVTLPVAEQARHEVFDVASVSAAAAPVNTLPVTTPQNVQTATYGSTLSGDNHSRLIAGYGSNETAGNHSDLIAGYGSTGTAGSDSWLVAGYGSTQTAGGDSALTAGYGSTQTAREGSNLTAGYGSTGTAGSDSSLIAGYGSTQTSGGDSSLTAGYGSTQTAQEGSNLTAGYGSTGTAGSDSSLIAGYGSTQTSGGDSSLTAGYGSTQTAQEGSNLTAGYGSTGTAGVDSSLIAGYGSTQTSGSDSALTAGYGSTQTAQEGSNLTAGYGSTGTAGSDSSLIAGYGSTQTSGSDSSLTAGYGSTQTAQEGSILTAGYGSTGTAGVDSSLIAGYGSTQTSGSDSALTAGYGSTQTAQEGSNLTAGYGSTGTAGADSSLIAGYGSTQTSGSESSLTAGYGSTQTAREGSTLTAGYGSTGTAGADSSLIAGYGSTQTSGSESSLTAGYGSTQTAQQGSVLTSGYGSTQTAGAASNLTTGYGSTGTAGHESFIIAGYGSTQTAGHKSILTAGYGSTQTARDGSDLIAGYGSTGTAGSGSSLIAGYGSTQTASYRSMLTAGYGSTQTAREHSDLVTGYGSTSTAGSNSSLIAGYGSTQTAGFKSILTAGYGSTQTAQERTSLVAGYGSTSTAGYSSSLIAGYGSTQTAGYESTLTAGYGSTQTAQENSSLTTGYGSTSTAGYSSSLIAGYGSTQTAGYESTLTAGYGSTQTAQERSDLVTGYGSTSTAGYASSLIAGYGSTQTAGYESTLTAGYGSTQTAQENSSLTTGYGSTSTAGFASSLISGYGSTQTAGYKSTLTAGYGSTQTAEYGSSLTAGYGSTATAGQDSSLIAGYGSSLTSGIRSFLTAGYGSTLIAGLRSVLIAGYGSSLTSGVRSTLTAGYGSNQIASYGSSLIAGHESIQVAGNKSMLIAGKGSSQTAGFRSTLIAGAGSVQLAGDRSRLIAGADSNQTAGDRSKLLAGNNSYLTAGDRSKLTGGHDCTLMAGDQSRLTAGKNSVLTAGARSKLIGSEGSTLSAGEDSILIFRLWDGKRYRQLVARTGENGVEADIPYYVNEDDDIVDKPDEDDDWIEVK
# Key:
# animals and animal cells = details: at normal body temperatures; cited from earlier work
# [1] = Ice nucleation kinetics of picoliter-sized drops of D2O and H2O mixtures (droplet technology); type: physicochemical
# Excerpt: FIG. 7. Probability distribution of ice nucleation temperature using nanodroplet technology, wherein condition 1 is pure heavy water containing 0.1 g/L SNOMAX, condition 2 is pure water containing 0.1 g/L SNOMAX, condition 3 is pure heavy water, and condition 4 is pure water.
# This disclosure has also systematically investigated the ice nucleation kinetics of picoliter-sized drops of heavy water (e.g., D2O or T2O) and light water (H2O) mixtures with freeze-dried P. syringae. […] The disclosure further investigated the effects of commonly used cryoprotectants such as ethylene glycol, propylene glycol and trehalose on the freezing characteristics of D2O and H2O mixtures. […] Furthermore, several cryoprotectants are found to depress the freezing phenomenon. Both the homogeneous and heterogeneous freezing temperatures of these aqueous solutions depend on the water activity and are independent of the nature of solute.
# A self-nucleating and preservation formulation comprising heavy water and ice nucleating agents was developed with broad applications in the field of cryopreservation. […]
# [2] = background statement; cited from earlier work
Molecule,concentration that can be toxic (animals and animal cells),shift of the ice nucleation kinetics profile per 25% (v/v) increase of D2O concentration ([1]; D2O+H2O mixtures containing 1 mg/ml SNOMAX),"median nucleation temperature ([1]; pure D2O, no ice nucleating agent, droplet technology) [°C]",temperature at which water freezes [2] [°C]
[2H]O[2H] [D2O],more than 20%,shifts by about one degree,−32.1,
B1,,,,−4 to −2
